Results as given in ChEMBL document CHEMBL1201862, “PubChem BioAssay data set” (2004).
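Five compound concentrations were applied to cells in 96-well plates for 48 hours; endpoints were derived by simple linear interpolation of the resulting dose-response curve. GI50: concentration for 50% inhibition of growth.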 The source made the active and inactive calls. Rule as the data show it: active = GI50 up to about 1.1 µM and inactive = higher.

Experiments:
Experiment in all cases: growth of human tumour cells (NCI), 48 h
U-251 = test system: U-251
NCI-H226 = test system: NCI-H226
A498 = test system: A498
SNB-19 = test system: SNB-19
LOX IMVI = test system: LOX IMVI
SK-MEL-2 = test system: SK-MEL-2
MCF7 = test system: MCF7
RXF 393 = test system: RXF 393
MDA-MB-435 = test system: MDA-MB-435
SW-620 = test system: SW-620
SF-295 = test system: SF-295
PC-3 = test system: PC-3
T47D = test system: T47D
MDA-N = test system: MDA-N
OVCAR-8 = test system: OVCAR-8
OVCAR-3 = test system: OVCAR-3
HT-29 = test system: HT-29
DLD-1 = test system: DLD-1
SNB-78 = test system: SNB-78
LXFL 529 = test system: LXFL 529

Measured: GI50

O=C1Nc2ccccc2/C1=N/NC(=S)N1CCCCC1
inactive: NCI-H226 1.37 µM | SNB-19 1.98 µM | SK-MEL-2 1.79 µM | MCF7 1.5 µM | MDA-MB-435 1.36 µM | T47D 5.94 µM | MDA-N 1.48 µM
active: U-251 0.678 µM | A498 0.356 µM | LOX IMVI 0.418 µM | RXF 393 0.0906 µM | SW-620 0.681 µM | SF-295 0.256 µM | PC-3 0.337 µM | OVCAR-8 0.317 µM | OVCAR-3 0.145 µM | HT-29 0.946 µM

C=C1C(=O)[C@@]23CC[C@@H]4[C@@]5(C)CCC[C@@]4(OC5=O)[C@@]2(C)CC[C@@H]1C3
active: LOX IMVI 0.422 µM | MCF7 0.893 µM | RXF 393 1.01 µM | SW-620 0.667 µM | HT-29 0.802 µM
inactive: U-251 1.97 µM | NCI-H226 2.08 µM | A498 3.24 µM | SNB-19 3.23 µM | SK-MEL-2 2.13 µM | MDA-MB-435 1.83 µM | SF-295 5.06 µM | PC-3 1.76 µM | T47D 4.89 µM | MDA-N 1.87 µM | OVCAR-8 2.3 µM | OVCAR-3 1.78 µM

CC(=O)OCC1OC(OC2C(CSC3OC(COC(C)=O)C(OC(C)=O)C(OC(C)=O)C3OC(C)=O)OC(OC(C)=O)C(OC(C)=O)C2OC(C)=O)C(OC(C)=O)C(OC(C)=O)C1OC(C)=O (stereo not given)
inactive: U-251 > 100 µM | NCI-H226 47.5 µM | SNB-19 > 100 µM | DLD-1 > 100 µM | LOX IMVI > 100 µM | SNB-78 > 100 µM | SW-620 > 100 µM | SF-295 > 100 µM | LXFL 529 > 100 µM | OVCAR-8 > 100 µM | OVCAR-3 > 100 µM | HT-29 > 100 µM

CC(=O)/C(=C\C1=CCCO1)C(=O)Nc1ccccc1C
inactive: U-251 > 100 µM | NCI-H226 > 100 µM | SNB-19 > 100 µM | DLD-1 > 100 µM | LOX IMVI > 100 µM | SK-MEL-2 > 100 µM | SNB-78 > 100 µM | RXF 393 > 100 µM | SW-620 > 100 µM | SF-295 > 100 µM | LXFL 529 > 100 µM | OVCAR-8 > 100 µM | OVCAR-3 > 100 µM | HT-29 > 100 µM

CC(C)=CCOc1cc(NC(=S)c2ccsc2C)ccc1Cl
inactive: U-251 20.7 µM | NCI-H226 13.5 µM | A498 27.3 µM | SNB-19 31.8 µM | LOX IMVI 30.7 µM | SK-MEL-2 27.4 µM | MCF7 15.4 µM | RXF 393 27.9 µM | MDA-MB-435 > 100 µM | SW-620 > 100 µM | SF-295 36 µM | PC-3 17.8 µM | T47D 1.64 µM | MDA-N > 100 µM | OVCAR-8 44.4 µM | OVCAR-3 14.1 µM | HT-29 > 100 µM

Nc1c(S(=O)(=O)c2ccc(Cl)cc2)c2nc3ccccc3nc2n2ccnc12
inactive: U-251 61.8 µM | NCI-H226 18.3 µM | SNB-19 48.5 µM | DLD-1 > 100 µM | SK-MEL-2 > 100 µM | SNB-78 > 100 µM | SF-295 > 100 µM | LXFL 529 > 100 µM | OVCAR-8 48.4 µM | OVCAR-3 > 100 µM | HT-29 > 100 µM

O=C(O)CCC(NC(=O)c1ccc(Oc2nc3ccccc3nc2-c2ccccc2)cc1)C(=O)O (stereo not given)
inactive: U-251 > 100 µM | NCI-H226 > 100 µM | A498 > 100 µM | SNB-19 > 100 µM | LOX IMVI > 100 µM | SK-MEL-2 > 100 µM | MCF7 > 100 µM | RXF 393 > 100 µM | MDA-MB-435 > 100 µM | SW-620 > 100 µM | SF-295 > 100 µM | PC-3 > 100 µM | T47D > 100 µM | MDA-N > 100 µM | OVCAR-8 > 100 µM | OVCAR-3 > 100 µM | HT-29 > 100 µM

Cc1nc2cc3nc4ccccc4c(O)c3cc2s1
inactive: U-251 > 100 µM | NCI-H226 > 100 µM | A498 > 100 µM | SNB-19 > 100 µM | SK-MEL-2 > 100 µM | SNB-78 > 100 µM | RXF 393 > 100 µM | SW-620 > 100 µM | SF-295 > 100 µM | LXFL 529 > 100 µM | OVCAR-8 > 100 µM | OVCAR-3 > 100 µM | HT-29 > 100 µM

O=C1CC(CC(=O)c2ccc(Br)cc2)C(O)=C1C(=O)c1ccc(Br)cc1 (stereo not given)
inactive: U-251 45.4 µM | NCI-H226 > 100 µM | A498 77.1 µM | SNB-19 56.2 µM | LOX IMVI 79.1 µM | SK-MEL-2 > 100 µM | MCF7 > 100 µM | RXF 393 > 100 µM | MDA-MB-435 > 100 µM | SW-620 > 100 µM | SF-295 53.1 µM | PC-3 98.2 µM | T47D 71.6 µM | MDA-N > 100 µM | OVCAR-8 99.8 µM | OVCAR-3 32.6 µM | HT-29 49.2 µM
